Measured values from ChEMBL document CHEMBL4229455, “Synthesis and anticancer activity of novel bisindolylhydroxymaleimide derivatives with potent GSK-3 kinase inhibition” (Bioorg Med Chem, 2018).

How the values were obtained:
Type in all cases: functional
K562 [1] = experiment: Cytotoxicity against human K562 cells assessed as cell growth at 0.1 uM after 48 hrs by SRB assay relative to control; conditions: K562, 48 h, read-out: Activity
HCT-15 [2] = experiment: Cytotoxicity against human HCT15 cells after 48 hrs by SRB assay; conditions: HCT-15, 48 h
TK-10 [3] = experiment: Cytotoxicity against human TK10 cells assessed as cell growth at 0.1 uM after 48 hrs by SRB assay relative to control; conditions: TK-10, 48 h, read-out: Activity
Hs-578T [4] = experiment: Cytotoxicity against human Hs 578T cells assessed as cell growth at 0.1 uM after 48 hrs by SRB assay relative to control; conditions: read-out: Activity
DU-145 = experiment: Cytotoxicity against human DU145 cells assessed as cell growth at 0.1 uM after 48 hrs by SRB assay relative to control; conditions: DU-145, 48 h, read-out: Activity
HCC 2998 [5] = experiment: Cytotoxicity against human HCC2998 cells assessed as cell growth at 0.1 uM after 48 hrs by SRB assay relative to control; conditions: HCC 2998, 48 h, read-out: Activity
BT-549 = experiment: Cytotoxicity against human BT549 cells after 48 hrs by SRB assay; conditions: BT-549, 48 h
COLO 205 = experiment: Cytotoxicity against human COLO205 cells assessed as cell growth at 100 uM after 48 hrs by SRB assay relative to control; conditions: COLO 205, 48 h, read-out: Activity
UACC-257 = experiment: Cytotoxicity against human UACC257 cells assessed as cell growth at 0.1 uM after 48 hrs by SRB assay relative to control; conditions: UACC-257, 48 h, read-out: Activity
HCC 2998 [6] = experiment: Cytotoxicity against human HCC2998 cells assessed as cell growth at 100 uM after 48 hrs by SRB assay relative to control; conditions: HCC 2998, 48 h, read-out: Activity
MDA-MB-435 [7] = experiment: Cytotoxicity against human MDA-MB-435 cells assessed as cell growth at 100 uM after 48 hrs by SRB assay relative to control; conditions: MDA-MB-435, 48 h, read-out: Activity
HCT-116 [8] = experiment: Cytotoxicity against human HCT116 cells assessed as cell growth at 0.1 uM after 48 hrs by SRB assay relative to control; conditions: HCT-116, 48 h, read-out: Activity
HT-29 [9] = experiment: Cytotoxicity against human HT-29 cells after 48 hrs by SRB assay; conditions: HT-29, 48 h
PC-3 = experiment: Cytotoxicity against human PC3 cells assessed as cell growth at 100 uM after 48 hrs by SRB assay relative to control; conditions: PC-3, 48 h, read-out: Activity
SK-MEL-28 = experiment: Cytotoxicity against human SK-MEL-28 cells assessed as cell growth at 100 uM after 48 hrs by SRB assay relative to control; conditions: SK-MEL-28, 48 h, read-out: Activity
OVCAR-8 = experiment: Cytotoxicity against human OVCAR8 cells after 48 hrs by SRB assay; conditions: OVCAR-8, 48 h
SK-MEL-2 [10] = experiment: Cytotoxicity against human SK-MEL-2 cells after 48 hrs by SRB assay; conditions: SK-MEL-2, 48 h
MDA-MB-435 [11] = experiment: Cytotoxicity against human MDA-MB-435 cells assessed as cell growth at 0.1 uM after 48 hrs by SRB assay relative to control; conditions: MDA-MB-435, 48 h, read-out: Activity
HCT-116 [12] = experiment: Cytotoxicity against human HCT116 cells assessed as cell growth at 1 uM after 48 hrs by SRB assay relative to control; conditions: HCT-116, 48 h, read-out: Activity
HCT-15 [13] = experiment: Cytotoxicity against human HCT15 cells assessed as cell growth at 0.1 uM after 48 hrs by SRB assay relative to control; conditions: HCT-15, 48 h, read-out: Activity
786-0 [14] = experiment: Cytotoxicity against human 786-O cells assessed as cell growth at 1 uM after 48 hrs by SRB assay relative to control; conditions: 786-0, 48 h, read-out: Activity
HOP-62 = experiment: Cytotoxicity against human HOP62 cells assessed as cell growth at 0.1 uM after 48 hrs by SRB assay relative to control; conditions: HOP-62, 48 h, read-out: Activity
A498 = experiment: Cytotoxicity against human A498 cells after 48 hrs by SRB assay; conditions: A498, 48 h
786-0 [15] = experiment: Cytotoxicity against human 786-O cells assessed as cell growth at 0.01 uM after 48 hrs by SRB assay relative to control; conditions: 786-0, 48 h, read-out: Activity
HT-29 [16] = experiment: Cytotoxicity against human HT-29 cells assessed as cell growth at 0.01 uM after 48 hrs by SRB assay relative to control; conditions: HT-29, 48 h, read-out: Activity
SF-539 = experiment: Cytotoxicity against human SF539 cells assessed as cell growth at 0.01 uM after 48 hrs by SRB assay relative to control; conditions: SF-539, 48 h, read-out: Activity
SNB-19 [17] = experiment: Cytotoxicity against human SNB19 cells assessed as cell growth at 0.1 uM after 48 hrs by SRB assay relative to control; conditions: SNB-19, 48 h, read-out: Activity
K562 [18] = experiment: Cytotoxicity against human K562 cells assessed as cell growth at 100 uM after 48 hrs by SRB assay relative to control; conditions: K562, 48 h, read-out: Activity
ACHN = experiment: Cytotoxicity against human ACHN cells assessed as cell growth at 100 uM after 48 hrs by SRB assay relative to control; conditions: read-out: Activity
SNB-19 [19] = experiment: Cytotoxicity against human SNB19 cells assessed as cell growth at 100 uM after 48 hrs by SRB assay relative to control; conditions: SNB-19, 48 h, read-out: Activity
TK-10 [20] = experiment: Cytotoxicity against human TK10 cells after 48 hrs by SRB assay; conditions: TK-10, 48 h; for CC50: read-out: LC50 (the source's name)
HOP-92 = experiment: Cytotoxicity against human HOP92 cells after 48 hrs by SRB assay; conditions: HOP-92, 48 h; for CC50: read-out: LC50 (the source's name)
SK-MEL-2 [21] = experiment: Cytotoxicity against human SK-MEL-2 cells assessed as cell growth at 0.1 uM after 48 hrs by SRB assay relative to control; conditions: SK-MEL-2, 48 h, read-out: Activity
SF-268 = experiment: Cytotoxicity against human SF268 cells after 48 hrs by SRB assay; conditions: SF-268, 48 h; for CC50: read-out: LC50 (the source's name)
CCRF-CEM = experiment: Cytotoxicity against human CCRF-CEM cells after 48 hrs by SRB assay
Hs-578T [22] = experiment: Cytotoxicity against human Hs 578T cells after 48 hrs by SRB assay
SNB-75 = experiment: Cytotoxicity against human SNB75 cells assessed as cell growth at 100 uM after 48 hrs by SRB assay relative to control; conditions: SNB-75, 48 h, read-out: Activity

N#CCCCCCn1cc(C2=C(c3cn(CCCCCC#N)c4ccccc34)C(=O)N(O)C2=O)c2ccccc21
growth at 0.1 µM (K562 [1]): 91% | GI50 (HCT-15 [2]): 3.88 µM | LC50 (HCT-15 [2]): > 100 µM | TGI (HCT-15 [2]): > 100 µM | growth at 0.1 µM (TK-10 [3]): 95% | growth at 0.1 µM (Hs-578T [4]): 91% | growth at 0.1 µM (DU-145): 103% | growth at 0.1 µM (HCC 2998 [5]): 101% | GI50 (BT-549): 3.44 µM | LC50 (BT-549): > 100 µM | TGI (BT-549): 24.5 µM | growth at 100 µM (COLO 205): -22% | growth at 0.1 µM (UACC-257): 100% | growth at 100 µM (HCC 2998 [6]): 1% | growth at 100 µM (MDA-MB-435 [7]): -27% | growth at 0.1 µM (HCT-116 [8]): 97% | GI50 (HT-29 [9]): 10.2 µM | LC50 (HT-29 [9]): > 100 µM | TGI (HT-29 [9]): 40.7 µM | growth at 100 µM (PC-3): -4% | growth at 100 µM (SK-MEL-28): 4% | GI50 (OVCAR-8): 12.3 µM | LC50 (OVCAR-8): > 100 µM | TGI (OVCAR-8): > 100 µM | GI50 (SK-MEL-2 [10]): 3.38 µM | LC50 (concentration killing 50% of cells) (SK-MEL-2 [10]): > 100 µM | TGI (SK-MEL-2 [10]): 14.9 µM | growth at 0.1 µM (MDA-MB-435 [11]): 95% | growth at 1 µM (HCT-116 [12]): 98% | growth at 0.1 µM (HCT-15 [13]): 93% | growth at 1 µM (786-0 [14]): 100% | growth at 0.1 µM (HOP-62): 85% | GI50 (A498): 2.36 µM | LC50 (A498): > 100 µM | TGI (A498): 86 µM | growth at 0.01 µM (786-0 [15]): 103% | growth at 0.01 µM (HT-29 [16]): 100% | growth at 0.01 µM (SF-539): 94% | growth at 0.1 µM (SNB-19 [17]): 95% | growth at 100 µM (K562 [18]): 3% | growth at 100 µM (ACHN): 4% | growth at 100 µM (SNB-19 [19]): 20% | GI50 (TK-10 [20]): 22.2 µM | TGI (TK-10 [20]): > 100 µM | CC50 (TK-10 [20]): > 100 µM | GI50 (HOP-92): 5.03 µM | TGI (HOP-92): > 100 µM | CC50 (HOP-92): > 100 µM | growth at 0.1 µM (SK-MEL-2 [21]): 98% | GI50 (SF-268): 10.1 µM | TGI (SF-268): > 100 µM | CC50 (SF-268): > 100 µM | GI50 (CCRF-CEM): 2.73 µM | LC50 (CCRF-CEM): > 100 µM | TGI (CCRF-CEM): > 100 µM | GI50 (Hs-578T [22]): 3.97 µM | LC50 (50% lethal concentration) (Hs-578T [22]): > 100 µM | TGI (Hs-578T [22]): > 100 µM | growth at 100 µM (SNB-75): -32%

Cn1cc(C2=C(c3cn(C)c4ncccc34)C(=O)NC2=O)c2ccccc21
growth at 0.1 µM (K562 [1]): 102% | GI50 (HCT-15 [2]): 3.49 µM | TGI (HCT-15 [2]): 60.5 µM | growth at 0.1 µM (TK-10 [3]): 105% | growth at 0.1 µM (Hs-578T [4]): 81% | growth at 0.1 µM (DU-145): 102% | growth at 0.1 µM (HCC 2998 [5]): 93% | GI50 (BT-549): 2.36 µM | TGI (BT-549): 8.09 µM | growth at 100 µM (COLO 205): -65% | growth at 0.1 µM (UACC-257): 103% | growth at 100 µM (HCC 2998 [6]): -37% | growth at 100 µM (MDA-MB-435 [7]): -35% | growth at 0.1 µM (HCT-116 [8]): 107% | GI50 (HT-29 [9]): 3.07 µM | TGI (HT-29 [9]): 20.6 µM | growth at 100 µM (PC-3): -9% | growth at 100 µM (SK-MEL-28): -24% | GI50 (OVCAR-8): 4.23 µM | TGI (OVCAR-8): 39.9 µM | GI50 (SK-MEL-2 [10]): 3.2 µM | TGI (SK-MEL-2 [10]): 8.28 µM | growth at 0.1 µM (MDA-MB-435 [11]): 93% | growth at 1 µM (HCT-116 [12]): 86% | growth at 0.1 µM (HCT-15 [13]): 103% | growth at 1 µM (786-0 [14]): 98% | growth at 0.1 µM (HOP-62): 103% | GI50 (A498): 0.32 µM | TGI (A498): 2.34 µM | growth at 0.01 µM (786-0 [15]): 99% | growth at 0.01 µM (HT-29 [16]): 109% | growth at 0.01 µM (SF-539): 99% | growth at 0.1 µM (SNB-19 [17]): 91% | growth at 100 µM (K562 [18]): 2% | growth at 100 µM (ACHN): -11% | growth at 100 µM (SNB-19 [19]): -11% | GI50 (TK-10 [20]): 4.82 µM | TGI (TK-10 [20]): 43.9 µM | CC50 (TK-10 [20]): > 100 µM | GI50 (HOP-92): 2.54 µM | TGI (HOP-92): 23.4 µM | CC50 (HOP-92): > 100 µM | growth at 0.1 µM (SK-MEL-2 [21]): 113% | GI50 (SF-268): 4.86 µM | TGI (SF-268): 48.4 µM | CC50 (SF-268): > 100 µM | GI50 (CCRF-CEM): 2.86 µM | TGI (CCRF-CEM): > 100 µM | GI50 (Hs-578T [22]): 0.847 µM | TGI (Hs-578T [22]): 4.08 µM | growth at 100 µM (SNB-75): -51%
